Usually solubility stands for the dissolved amount per volume that the medium holds.

Structures are written as SMILES. Values after ≈ are worked out from the molar mass of the structure shown.

Data on seven compounds can be found in patent US20110281810A1, “Composition” (Cognis IP Management GmbH, priority 2010, published 2011).

Series [1] is described as follows: physchem. The method, then: The stated products and synergistic mixtures were investigated for their usefulness in pharmaceutical formulations and in particular for solubility improvement for sparingly soluble model substances.
The effect of the stated new solubilizers on the boost to solubility of these active ingredients was investigated and was compared with solubilizers already established for pharmaceutical applications. For this purpose, solution isotherms were recorded, and can be used to ascertain the extent of dissolution mediated by the various solubilizers. The optimum is a sharp increase in drug concentration through the use of small amounts of solubilizer, since increasing concentration may also be accompanied by an increase in the unwanted effects.
The solubilizers investigated were compared with solubilizers already established for pharmaceutical formulations, such as TEGO® SMO 80 V (Polysorbat 80) from Evonik, Solutol® HS 15 from BASF, Ludwigshafen, and Eumulgin® RO 35 PH and Speziol® TPGS Pharma (Tocophersolan) from Cognis, Monheim.

A short description of series [2]: Solubilization of a homologous series of cinnamic acid derivatives in water by solubilizers. To be noted: aqueous with cosolvent or surfactant or cyclodextrin.
Description: (§1) Additionally investigated was the solubilization of a homologous series of cinnamic acid derivatives.
Series [3] can be described thus: physchem. The note with it: aqueous with cosolvent or surfactant or cyclodextrin.
Description: as §1
Setting [4] is: aqueous with cosolvent or surfactant or cyclodextrin, Solubility with Eumulgin RO35.
The mark [5] stands for this setting: aqueous with cosolvent or surfactant or cyclodextrin, Solubility with TEGO SMO 80V.
Where [6] appears, read: water, Solubility, no solubilizer.
Where [7] appears, read: Eumulgin ES solution in water, Solubility (MW) with Eumulgin ES, water, solubilizer Eumulgin ES.
Where [8] appears, read: Eumulgin HPS solution in water, Solubility (MW) with Eumulgin HPS, water, solubilizer Eumulgin HPS.
Setting [9] is: Eumulgin L solution in water, Solubility (MW) with Eumulgin L, water, solubilizer Eumulgin L.
Where [10] appears, read: Eumulgin O10 solution in water, Solubility (MW) with Eumulgin O10, water, solubilizer Eumulgin O10.
[11] abbreviates: Eumulgin RO35 solution in water, Solubility (MW) with Eumulgin RO35, water, solubilizer Eumulgin RO35.
Where [12] appears, read: Speziol TPGS solution in water, Solubility (MW) with Speziol TPGS, water, solubilizer Speziol TPGS.
Where [13] appears, read: Tego SMO 80V solution in water, Solubility (MW) with Tego SMO 80V, water, solubilizer Tego SMO 80V.
The mark [14] stands for this setting: Solubility (MW) with Eumulgin HPS.
Setting [15] is: Solubility (MW) with Eumulgin L.
[16] abbreviates: Solubility (MW) with Eumulgin O10.
Where [17] appears, read: Solubility (MW) with Eumulgin RO35.
[18] abbreviates: Solubility (MW) with Speziol TPGS.
Where [19] appears, read: Solubility (MW) with Tego SMO 80V.

For `CCC(C)n1ncn(-c2ccc(N3CCN(c4ccc(OCC5COC(Cn6cncn6)(c6ccc(Cl)cc6Cl)O5)cc4)CC3)cc2)c1=O` (centres unmarked) [Itraconazole], in “physchem [1]”, the “Solubility with Eumulgin ES” value turned out to be 9 µg/mL, the “Solubility with Eumulgin HPS” value stood at 0.008 mg/m1, the “Solubility with Eumulgin L” value came out at 7 µg/mL and the “Solubility with Speziol TPGS” value turned out to be 8 µg/mL. The solubility in the series “physchem [1]” (setting [4]) was determined as 11 µg/mL. Besides, the solubility in “physchem [1]” (setting [5]) came to 15 µg/mL. The solubility in “physchem [1]” (setting [6]) turned out to be 1 µg/mL.

Take `CC(C)COC(=O)C=Cc1ccccc1` [Isobutyl cinnamate, isobutyl cinnamate]: the solubility in series [2] (setting [7]) came out at 1200 µg/mL (≈ 5.87 mM); in series [2] (setting [8]), 29000 µg/mL (≈ 142 mM); in series [2] (setting [9]), 41000 µg/mL (≈ 201 mM); in series [2] (setting [10]), 65900 µg/mL (≈ 323 mM); in series [2] (setting [11]), 54200 µg/mL (≈ 265 mM); in series [2] (setting [12]) it was 23100 µg/mL (≈ 113 mM). This compound gave a solubility in series [2] (setting [13]) of 110000 µg/mL (≈ 539 mM).

Consider `CC[C@H]1OC(=O)[C@H](C)[C@@H](O[C@H]2C[C@@](C)(OC)[C@@H](O)[C@H](C)O2)[C@H](C)[C@@H](O[C@@H]2O[C@H](C)C[C@H](N(C)C)[C@H]2O)[C@](C)(O)C[C@@H](C)C(=O)[C@H](C)[C@@H](O)[C@]1(C)O` [Erythromycin], for which the solubility in “physchem [1]” (aqueous with cosolvent or surfactant or cyclodextrin, Solubility with Eumulgin HPS) amounted to 1230 µg/mL; in “physchem [1]” (aqueous with cosolvent or surfactant or cyclodextrin, Solubility with Eumulgin L), 1070 µg/mL; in the series “physchem [1]” (setting [4]), 1660 µg/mL; in “physchem [1]” (aqueous with cosolvent or surfactant or cyclodextrin, Solubility with Speziol TPGS) it was 1720 µg/mL; in the series “physchem [1]” (setting [5]) it was 1700 µg/mL; in the series “physchem [1]” (setting [6]) it was 459 µg/mL.

Regarding `COC(=O)C=Cc1ccccc1` [Methyl cinnamate, methyl cinnamate], the solubility was determined as 3000 µg/mL (≈ 18.5 mM) in series [2] (setting [7]); 11400 µg/mL (≈ 70.3 mM) in series [2] (setting [8]); 9800 µg/mL (≈ 60.4 mM) in series [2] (setting [9]); 9100 µg/mL (≈ 56.1 mM) in series [2] (setting [10]); 21500 µg/mL (≈ 133 mM) in series [2] (setting [11]); 7900 µg/mL (≈ 48.7 mM) in series [2] (setting [12]). Besides, in series [2] (setting [13]), the concentration in solution (solubility) was 9600 µg/mL (≈ 59.2 mM).

As to `CCOC(=O)C=Cc1ccccc1` [Ethyl cinnamate, ethyl cinnamate], the solubility in the series “physchem [3]” (setting [14]) came to 23600 µg/mL (≈ 134 mM); in “physchem [3]” (setting [15]), 14700 µg/mL (≈ 83.4 mM); in the series “physchem [3]” (setting [16]) it was 47000 µg/mL (≈ 267 mM); in “physchem [3]” (setting [17]), 68000 µg/mL (≈ 386 mM); in the series “physchem [3]” (setting [18]), 42300 µg/mL (≈ 240 mM); in the series “physchem [3]” (setting [19]), 96400 µg/mL (≈ 547 mM).

In the case of `O=C(C=Cc1ccccc1)OCCc1ccccc1` [Phenethyl cinnamate, phenethyl cinnamate], the solubility in “physchem [3]” (Solubility (MW) with Eumulgin ES) amounted to 3200 µg/mL (≈ 12.7 mM); in “physchem [3]” (setting [14]), 2700 µg/mL (≈ 10.7 mM); in “physchem [3]” (setting [15]), 2500 µg/mL (≈ 9.91 mM); in “physchem [3]” (setting [16]), 3700 µg/mL (≈ 14.7 mM); in the series “physchem [3]” (setting [17]) it was 4900 µg/mL (≈ 19.4 mM); in the series “physchem [3]” (setting [18]) it was 2600 µg/mL (≈ 10.3 mM). This compound also registered a solubility in “physchem [3]” (setting [19]) of 2500 µg/mL (≈ 9.91 mM).

With `CC(C)OC(=O)C=Cc1ccccc1` [Isopropyl cinnamate, isopropyl cinnamate], the solubility in series [2] (setting [7]) came out at 3400 µg/mL (≈ 17.9 mM); in series [2] (setting [8]) it was 25700 µg/mL (≈ 135 mM); in series [2] (setting [9]), 15200 µg/mL (≈ 79.9 mM); in series [2] (setting [10]), 32600 µg/mL (≈ 171 mM); in series [2] (setting [11]), 50900 µg/mL (≈ 268 mM); in series [2] (setting [12]) it was 21000 µg/mL (≈ 110 mM). Moreover, the solubility in series [2] (setting [13]) was found to be 52500 µg/mL (≈ 276 mM).
